# Experiments:
# [1] = biological target: T1, full length (1-55) HIV-1 NCp7 (Human immunodeficiency virus type 1 group M subtype B, UniProt P12493); experiment: Electromobility Shift Assay (EMSA), competition for ssDNA binding; details: NCp7 300 nM, M13mp18 ssDNA; positive = >25% inhibition at 100µM
# T1 construct: recombinant full length (1-55) HIV-1 NCp7 proteins; made in house
# Outline: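 Recombinant NL4-3 NCp7 (300 nM in the pre-mix) was combined with compound in 20 mM Tris-HCl pH 7.4, 2 mM MgCl2, 100 mM NaCl, 1 mM DTT, then M13mp18 ssDNA was added for 25 min at 37 °C. Complexes were run on 1% agarose/0.5x TBE and stained with SybrGold. IC50 is the concentration at which bound ssDNA migrated 50% of the bound–unbound distance (triplicate).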
# [2] = tested on: HIV-1 reference strain NL4-3; experiment: MonoCycle assay (TZM-bl cells); type: cell-based; details: Human immunodeficiency virus 1, NL43, TZM-bl, 48 h, read-out: Mono Cycle IC50 nM
# Experimental: MonoCycle assay is a cell based assay allowing the evaluation of antiviral activity of HIV-1 inhibitors targeting the early steps of HIV-1 life cycle such as entry, uncoating of viral particles, reverse transcription and integration. The assay consists in the infection of TZM-bl cells (20,000/well) with the HIV-1 reference strain NL4-3 in presence of serial five-fold dilutions of the investigational inhibitors. After 48 hours, cells were lysed adding 40 µl of Glo Lysis Buffer (Promega) to each well for 5 minutes, then 40 µl of Brighy-Glo Luciferase Reagent (Promega) were added to each well for relative luminescence units (RLU) counting using Glo-Max Multi Detection System (Promega). RLU values from each well were elaborated using the GraphPad v5.0 software to calculate the IC50 of each compound.
# HeLa cells = experiment: HeLa Proliferation assay (CellTiter Glo); type: cell-based; details: 72 hours
# Experimental: HeLa cells (ATCC® CCL2™) in DMEM (Dulbecco Modified Eagle's Medium) without phenol red, Thermo, 11880, USA + 10% FBS + 1X PenStrep + 1X Gln or HUVEC cells (ATCC® CRL1730™) in EBM-2 (Endothelial Growth Basal Medium, Lonza, CC3156) + EGM-2 SingleQuotsTMSupplements and Growth Factors (Lonza, CC4176) + 1X Penicyllin-Streptomycin (PenStrep, ThermoFisher) + 1X Glutamine, are plated in a 384 well plate (Thermo, 4334-11, USA) to a density of 2000 cells per well and let recover for four hours at 37 °C, 5% CO2 in a humidified atmosphere. After the recovery, compounds are transferred to assay plates as per compound preparation method. Assay plates are then incubated at 37 °C, 5% CO2 in a humidified atmosphere for 72 hours. Cell viability is measured by the CellTiter Glo (Promega, G8080, USA) as per manufacturer instruction.
# [3] = tested on: Peripheral blood mononuclear cells (PBMC); type: cell-based; details: human, 7 days
# Experimental: Peripheral blood mononuclear cells (PBMC) obtained from healthy donors by separation over Ficoll-Hypaque (GEHealthear-Cat.# GEH17-1440-02) were suspended at 2x10^6 cells/mL in RPMI 1640 (Biowest-Cat.#L0501-500) supplemented with 10% of heat-inactivated sterile fetal bovine serum (Gibco-Cat.#10270-106), 2 mmol/l L-glutamine (Biowest-Cat.#X0550-100), 50 U/mL Penicillin-50 µg/mL Streptomycin (Biowest-Cat.#L0022-100), referred to as complete medium (CM). PBMC were supplemented with 5 µg/mL of phytohaemagglutinin (Sigma Aldr-Cat.#L1668) and cultured in 75 cm^2 flasks (Sarsted-Cat.#833.911.002) for 2 days at 37 °C in a humidified atmosphere with 5% CO2.
# PBMC were then washed in CM, counted by trypan blue exclusion (Gibco-Cat. #15250-061), centrifuged and suspended in fresh CM supplemented with 20 IU/mL recombinant human IL-2 (Miltenyi Biotec-Cat.#130-097-748) and seeded in a 96-well-tissue culture plate (Sarsted-Ca#831.837) at the density of 5x10^5 cells/mL (or 1x10^5 cells in 200 µL final CM volume per well). Cells were left untreated (negative control) or treated with different concentrations of the compounds.
# After 7 days of incubation cytotoxicity was determined using Promega's CellTiter 96(R) AQueous One Solution Cell Proliferation Assay (MTS assay) (Promega-Cat.#G3581) according to the manufacturer's instuctions. This is a colorimetric method for determining the number of viable cells in proliferation or cytotoxicity assays. The MTS tetrazolium compound is bioreduced by cells into a colored formazan product that is soluble in tissue culture medium. This conversion is presumably accomplished by NADPH or NADH produced by dehydrogenase enzymes in metabolically active cells.
# Briefly, MTS solution was thawed at room temperature, or in a water bath at 37 °C and 40 µL of MTS solution was pipeted into each well of the 96-well assay plate containing the samples in 200 µL of culture medium and incubated at 37 °C, 5% CO2 for 4 hours. The optical density was read at 490 nm using a 96-well plate reader (Tecan Infinite F50) and TD50 (toxic dose 50%, dose killing 50% of the cells compared to untreated control) value was calculated by interpolation of the curve obtained by plotting dose against percent mortality and by using "Magellan data analysis software". CM alone plus MTS solution was used as a blank, and cell culture well without compound was used as a cellular control.
SMILES,EMSA screening results [1],IC50 [2] [nM],Proliferation assay HELA TD50 (HeLa cells) [nM],Proliferation assay PBMC TD50 [3] [nM]
"Cc1cccnc1-c1nc(O)c(O)c(C(=O)N[C@@H](C)C2CCCCC2)n1 [Compound 39, (S)-N-(1-cyclohexylethyl)-5,6-dihydroxy-2-(3-methylpyridin-2-yl)pyrimidine-4-carboxamide]",Negative,> 50000,878.8,2300
"C[C@@H](NC(=O)c1nc(-c2ccc(CNCc3ccccc3)cn2)nc(O)c1O)C1CCCCC1 [Compound 53, (R)-2-(5-((benzylamino)methyl)pyridin-2-yl)-N-(1-cyclohexylethyl)-5,6-dihydroxypyrimidine-4-carboxamide]",Negative,38100,2876.3,790
"COc1cccc(-c2nc(O)c(O)c(C(=O)N[C@H](C)C3CCCCC3)n2)n1 [Compound 37, (R)-N-(1-cyclohexylethyl)-5,6-dihydroxy-2-(6-methoxypyridin-2-yl)pyrimidine-4-carboxamide]","Positive (A compound showing >25% inhibition when tested at 100µM concentration is considered as ""positive"")",6910,897.6,1500
"C[C@@H](NC(=O)c1nc(-c2cc(C(F)(F)F)ccn2)nc(O)c1O)C1CCCCC1 [Compound 27, (R)-N-(1-cyclohexylethyl)-5,6-dihydroxy-2-(4-(trifluoromethyl)pyridin-2-yl)pyrimidine-4-carboxamide]","Positive (A compound showing >25% inhibition when tested at 100µM concentration is considered as ""positive"")",> 50000,5975.3,1075
"C[C@@H](NC(=O)c1nc(-c2cccc(Cl)n2)nc(O)c1O)C1CCCCC1 [Compound 34, (R)-2-(6-chloropyridin-2-yl)-N-(1-cyclohexylethyl)-5,6-dihydroxypyrimidine-4-carboxamide]",Negative,14500,8229.6,5880
"O=C(NCC1CCC1)c1nc(-c2cc3ccccc3cn2)nc(O)c1O [Compound 47, N-(cyclobutylmethyl)-5,6-dihydroxy-2-(isoquinolin-3-yl)pyrimidine-4-carboxamide]",,8930,3332.6,4900
"CC(=O)Nc1ccc(-c2nc(O)c(O)c(C(=O)N[C@H](C)C3CCCCC3)n2)nc1 [Compound 62, (R)-2-(5-acetamidopyridin-2-yl)-N-(1-cyclohexylethyl)-5,6-dihydroxypyrimidine-4-carboxamide]","Positive (A compound showing >25% inhibition when tested at 100µM concentration is considered as ""positive"")",> 50000,4551.9,1870
"O=C(NC1CCCCC1)c1nc(-c2ccccn2)nc(O)c1O [Compound 4, N-cyclohexyl-5,6-dihydroxy-2-(pyridin-2-yl)pyrimidine-4-carboxamide]",Negative,> 50000,8135.3,4800
"C[C@@H](NC(=O)c1nc(-c2cc(CCN(C)C)ccn2)nc(O)c1O)C1CCCCC1 [Compound 92, (R)-N-(1-cyclohexylethyl)-2-(4-(2-(dimethylamino)ethyl)pyridin-2-yl)-5,6-dihydroxypyrimidine-4-carboxamide]",Negative,6120,1168.4,2020
"C[C@@H](NC(=O)c1nc(-c2ccc(C(=O)OCc3ccccc3)cn2)nc(O)c1O)C1CCCCC1 [Compound 21, benzyl (R)-6-(4-((1-cyclohexylethyl)carbamoyl)-5,6-dihydroxypyrimidin-2-yl)nicotinate]","Positive (A compound showing >25% inhibition when tested at 100µM concentration is considered as ""positive"")",> 50000,3960.7,<400
"COc1ccnc(-c2nc(O)c(O)c(C(=O)NC3CCC(C)(C)CC3)n2)c1 [Compound 77, N-(4,4-dimethylcyclohexyl)-5,6-dihydroxy-2-(4-methoxypyridin-2-yl)pyrimidine-4-carboxamide]","Positive (A compound showing >25% inhibition when tested at 100µM concentration is considered as ""positive"")",17300,2257.8,2200
"C[C@@H](NC(=O)c1nc(-c2ccc(Cl)cn2)nc(O)c1O)C1CCCCC1 [Compound 49, (R)-2-(5-chloropyridin-2-yl)-N-(1-cyclohexylethyl)-5,6-dihydroxypyrimidine-4-carboxamide]",,10900,2099.9,3400
"C[C@@H](NC(=O)c1nc(-c2ccc(CN3CCCC3)cn2)nc(O)c1O)C1CCCCC1 [Compound 93, (R)-N-(1-cyclohexylethyl)-5,6-dihydroxy-2-(5-(pyrrolidin-1-ylmethyl)pyridin-2-yl)pyrimidine-4-carboxamide]",Negative,> 50000,,1870
"C[C@@H](NC(=O)c1nc(-c2ccc(CO)cn2)nc(O)c1O)C1CCCCC1 [Compound 55, (R)-N-(1-cyclohexylethyl)-5,6-dihydroxy-2-(5-(hydroxymethyl)pyridin-2-yl)pyrimidine-4-carboxamide]","Positive (A compound showing >25% inhibition when tested at 100µM concentration is considered as ""positive"")",9050,1466.5,
"C[C@H](NC(=O)c1nc(-c2nccc3[nH]ccc23)nc(O)c1O)C1CCCCC1 [Compound 86, (S)-N-(1-cyclohexylethyl)-5,6-dihydroxy-2-(1H-pyrrolo[3,2-c]pyridin-4-yl)pyrimidine-4-carboxamide]","Positive (A compound showing >25% inhibition when tested at 100µM concentration is considered as ""positive"")",> 50000,1414.7,
"C[C@@H](NC(=O)c1nc(-c2cc(N)ccn2)nc(O)c1O)C1CCCCC1 [Compound 48, (R)-2-(4-aminopyridin-2-yl)-N-(1-cyclohexylethyl)-5,6-dihydroxypyrimidine-4-carboxamide]",,9870,1549.6,2600
